According to patent US8859557B2, “Substituted oxindole derivatives and their use as vasopressin receptor ligands” (Abbott GmbH & Co. KG, priority 2006, dated 2014):

How the values were obtained:
[1] = target: T1, recombinant human oxytocin receptors (Homo sapiens, UniProt P30559); assay: Oxytocin receptor binding assay; conditions: selectivity for V1b over oxytocin receptor, quotient of Ki values
T1 construct: expressed in transfected cells; host or cells: HEK-293, transient expression; lysed and homogenized cells
T1 sequence (P30559 1-389): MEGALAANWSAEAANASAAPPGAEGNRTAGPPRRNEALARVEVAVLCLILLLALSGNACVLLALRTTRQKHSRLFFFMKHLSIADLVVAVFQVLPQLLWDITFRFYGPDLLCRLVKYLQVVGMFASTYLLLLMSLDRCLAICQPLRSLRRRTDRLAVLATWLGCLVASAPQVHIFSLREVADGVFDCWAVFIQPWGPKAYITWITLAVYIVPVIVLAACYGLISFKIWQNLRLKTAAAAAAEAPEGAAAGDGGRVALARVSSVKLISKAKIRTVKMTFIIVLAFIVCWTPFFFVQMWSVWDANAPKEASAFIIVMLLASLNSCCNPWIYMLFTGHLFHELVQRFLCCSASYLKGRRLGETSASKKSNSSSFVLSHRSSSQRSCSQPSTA
Procedure: Oxytocin Receptor Binding Assay
Confluent HEK-293 cells with transiently expressing recombinant human oxytocin receptors were centrifuged at 750×g and at room temperature for 5 minutes. The residue was taken up in ice-cold lysis buffer (50 mM Tris-HCl, 10% glycerol, pH 7.4 and Roche Complete Protease Inhibitor) and subjected to an osmotic shock at 4° C. for 20 minutes. The lyzed cells were then centrifuged at 750×g and at 4° C. for 20 minutes, the residue was taken up in incubation buffer, and aliquots of 10^7 cells/ml were prepared. The aliquots were frozen at −80° C. until used.
On the day of the experiment, the cells were thawed, diluted with incubation buffer and homogenized using a Multipette Combitip (Eppendorf, Hamburg). […] The nonspecific binding was determined with 10^−6 M oxytocin (Bachem AG, H2510). Determinations in triplicate were set up. Bound and free radioligand were separated by filtration under vacuum with Whatman GF/B glass fibre filters using a Skatron cell harvester 7000. The bound radioactivity was determined by liquid scintillation measurement in a Tricarb beta counter, model 2000 or 2200CA (Packard).

[2] = target: human vasopressin V1a receptor (Homo sapiens, UniProt P37288); assay: Vasopressin V1a receptor binding assay; conditions: selectivity for V1b over V1a, quotient of Ki values
Chain of human vasopressin V1a receptor (P37288 whole entry): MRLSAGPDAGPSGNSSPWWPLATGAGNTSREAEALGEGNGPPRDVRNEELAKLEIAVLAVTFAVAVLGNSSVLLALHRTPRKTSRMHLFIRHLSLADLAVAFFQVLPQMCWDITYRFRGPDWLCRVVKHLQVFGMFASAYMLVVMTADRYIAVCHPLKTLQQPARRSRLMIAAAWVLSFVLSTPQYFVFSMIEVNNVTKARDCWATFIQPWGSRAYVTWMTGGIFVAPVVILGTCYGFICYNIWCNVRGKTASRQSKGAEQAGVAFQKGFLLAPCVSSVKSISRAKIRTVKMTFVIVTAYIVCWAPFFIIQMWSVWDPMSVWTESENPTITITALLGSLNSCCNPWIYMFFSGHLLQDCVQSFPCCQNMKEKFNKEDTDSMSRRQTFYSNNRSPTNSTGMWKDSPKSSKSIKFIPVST

[3] = target: T2, human vasopressin V1b receptor (Homo sapiens, UniProt P47901); assay: Vasopressin V1b receptor binding assay; conditions: displacement of 3H-AVP, membranes of CHO-K1 cells with human V1b receptor
T2 construct: expressed in transfected cells; host or cells: CHO-K1 (cell line hV1b-3H2_CHO), membrane preparation
T2 sequence (P47901 1-424): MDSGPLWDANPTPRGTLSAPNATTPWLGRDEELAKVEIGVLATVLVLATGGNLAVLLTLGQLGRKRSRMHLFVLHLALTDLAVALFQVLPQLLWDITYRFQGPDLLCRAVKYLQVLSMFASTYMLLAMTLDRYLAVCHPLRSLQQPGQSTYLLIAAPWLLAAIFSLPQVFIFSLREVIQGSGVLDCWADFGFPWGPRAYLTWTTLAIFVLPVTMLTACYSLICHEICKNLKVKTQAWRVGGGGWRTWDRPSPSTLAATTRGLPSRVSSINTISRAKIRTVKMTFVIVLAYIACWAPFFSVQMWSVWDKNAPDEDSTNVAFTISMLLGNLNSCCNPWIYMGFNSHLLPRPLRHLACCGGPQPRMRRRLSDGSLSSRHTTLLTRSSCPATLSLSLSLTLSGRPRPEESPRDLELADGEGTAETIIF
Procedure: Methods for Determining the Biological Activity Vasopressin V1b Receptor Binding Assay: Substances:
This series of DMSO predilutions was diluted 1:10 with assay buffer. The substance concentration was again diluted 1:5 in the assay mixture (2% DMSO in the mixture).
All determinations were carried out as triplicate determinations.

[4] = Determination of the microsomal half-life / microsomal clearance (human); assay type: in vitro ADME; conditions: pH 7.4; human liver microsomes, 0.5 μM test substance, 0.25 mg microsomal protein/ml; read-out: Human Mikrosomal Clearance
Procedure: The metabolic stability of a compound can be determined, for example, by incubating a solution of this compound with liver microsomes from particular species (for example rat, dog or human) and determining the half-life of the compound under these conditions (RS Obach, Curr Opin Drug Discov Devel. 2001, 4, 36-44). It is possible to conclude from an observed larger half-life that the metabolic stability of the compound is improved. The stability in the presence of human liver microsomes is of particular interest since it makes it possible to predict the metabolic degradation of the compound in the human liver. Compounds with increased metabolic stability (determined in the liver microsome test) are therefore probably also degraded more slowly in the liver. The slower metabolic degradation in the liver can lead to higher and/or longer-lasting concentrations (effective levels) of the compound in the body, so that the elimination half-life of the compounds according to the invention is increased. Increased and/or longer-lasting effective levels may lead to a better efficacy of the compound in the treatment or prophylaxis of various vasopressin-dependent diseases. An improved metabolic stability may additionally lead to an increased bioavailability after oral administration, because the compound is subjected, after being absorbed in the intestine, to less metabolic degradation in the liver (so-called first pass effect). An increased oral bioavailability may, because the concentration (effective level) of the compound is increased, lead to a better efficacy of the compound after oral administration.
Determination of the Microsomal Half-Life:
The metabolic stability of the compounds of the invention was determined in the following assay.
The test substances are incubated in a concentration of 0.5 μM as follows:
0.5 μM test substance is preincubated together with liver microsomes of various species (rat, human or other species) (0.25 mg of microsomal protein/ml) in 0.05M potassium phosphate buffer pH 7.4 in microtitre plates at 37° C. for 5 min. The reaction is started by adding NADPH (1 mg/ml). 50 μl aliquots are taken after 0, 5, 10, 15, 20 and 30 min, and the reaction is stopped immediately with the same volume of acetonitrile and cooled down. The samples are frozen until analyzed. Using MSMS, the remaining concentration of undegraded test substance is determined. From the […] of the test substance signal/time unit curve, the half-life (T½) is determined, where the half-life of the test substance can be calculated, assuming first order kinetics, from the decrease in the concentration of the compound with time. The microsomal clearance (mCl) is calculated as mCl=In2/T½/(content of microsomal protein in mg/ml)×1000 [ml/min/mg] (modified according to the literature references: Di, The Society for Biomoleculaur Screening, 2003, 453-462; Obach, DMD, 1999 vol 27. N 11, 1350-1359).

In the case of `CCOc1ncccc1C1(NC(=O)N2CCC(N3CCN(CC)CC3)CC2)C(=O)N(S(=O)(=O)c2ccccc2)c2ccc(C#N)cc21` (single isomer, unassigned) [Example 40B, (−)-N-[5-Cyano-3-(2-ethoxypyridin-3-yl)-2-oxo-1-(phenylsulphonyl)-2,3-dihydro-1H-indol-3-yl]-4-(4-ethylpiperazin-1-yl)piperidin-1-carboxamide], the “Ki(h-OT)/Ki(h-V1b)” value [1] is reported as “+++ (>50)”, the “Ki(h-V1a)/Ki(h-V1b)” value [2] is reported as “+ (15-50)” and the Ki [3] is reported as < 10 nM. The microsomal CLint at 0.5 μM [4] was 60 to 120 µL/min/mg.

For `CCOc1ncccc1C1(NC(=O)N2CCN(C3CCN(CC)CC3)CC2)C(=O)N(S(=O)(=O)c2ccc(OC)cc2OC)c2ccc(C#N)cc21.O=C(O)C(F)(F)F` (single isomer, unassigned) [Example 7B, (−)-N-[5-Cyano-1-[(2,4-dimethoxyphenyl)sulphonyl]-3-(2-ethoxypyridin-3-yl)-2-oxo-2,3-dihydro-1H-indol-3-yl]-4-(1-ethylpiperidin-4-yl)piperazine-1-carboxamide trifluoroacetate], the “Ki(h-OT)/Ki(h-V1b)” value [1] was “+++ (>50)”, the “Ki(h-V1a)/Ki(h-V1b)” value [2] was “+++ (>100)” and the Ki [3] was < 10 nM. For the same compound, the microsomal CLint at 0.5 μM [4] was < 60 µL/min/mg.

With `CCOc1ncccc1C1(NC(=O)N2CCC(N3CCN(C)CC3)CC2)C(=O)N(S(=O)(=O)c2ccc(OC)cc2)c2ccc(C#N)cc21.O=C(O)C(F)(F)F` (racemic) [Example 35, N-[5-Cyano-3-(2-ethoxypyridin-3-yl)-1-[(4-methoxyphenyl)sulphonyl]-2-oxo-2,3-dihydro-1H-indol-3-yl]-4-(4-methylpiperazin-1-yl)piperidine-1-carboxamide trifluoroacetate] the “Ki(h-OT)/Ki(h-V1b)” value [1] was “++ (>25-50)”, the “Ki(h-V1a)/Ki(h-V1b)” value [2] was “+ (15-50)” and the Ki [3] was < 10 nM. The microsomal CLint at 0.5 μM [4] was 60 to 120 µL/min/mg.

In the case of `CCOc1ncccc1C1(NC(=O)N2CCC(N3CCN(C)CC3)CC2)C(=O)N(S(=O)(=O)c2ccc(OC)cc2OC)c2ccc(C#N)cc21` (racemic) [Example 31, N-[5-Cyano-1-[(2,4-dimethoxyphenyl)sulphonyl]-3-(2-ethoxypyridin-3-yl)-2-oxo-2,3-dihydro-1H-indol-3-yl]-4-(4-methylpiperazin-1-yl)piperidine-1-carboxamide], the “Ki(h-OT)/Ki(h-V1b)” value [1] is reported as “+++ (>50)”, the “Ki(h-V1a)/Ki(h-V1b)” value [2] is reported as “+++ (>100)” and the Ki [3] is reported as < 10 nM. For the same compound, the microsomal CLint at 0.5 μM [4] was 60 to 120 µL/min/mg.
